Assay results as given in patent publication US12630502B2, “Compounds, compositions and polymer films” (Fujifilm Manufacturing Europe B.V., priority 2020, dated 2026).
Where a name gives a salt, the structure may show the parent alone.

Test: Solubility in water at 40° C. (visual or UV-spectrometry)
Format: physicochemical
Conditions: kept overnight, 500 ppm 4OH-TEMPO
Protocol: The solubility of the compounds of Formula (I) was determined visually or by UV-spectrometry. For each compound of Formula (I), three solutions were prepared at 40° C.: one solution at 30 wt %, one solution at 60 wt %, and one solution at 70 wt %. 500 ppm 4OH-TEMPO was included in all three solutions to prevent premature polymerisation. The solutions were kept in a water bath of 40° C. overnight and centrifuged prior inspection. UV spectra were recorded in a Cary™ 100 UV-visible spectrophotometer from Agilent Technologies using a 1 mm path length quartz cuvette.

| Compound | Solubility in water at 40° C. [wt %] |
| --- | --- |
| C=Cc1ccc(S(=O)(=O)NS(=O)(=O)c2ccc(C=C)cc2)cc1 [XL-B, Benzenesulphonamide, 4-ethenyl-N-[(4-ethenylphenyl)sulphonyl]-, lithium salt] | 56 |
| Divinylbenzenesulphonate, Sodium salt [DVBS-Na, reference compound] | 8 |
| C=Cc1ccc(S(=O)(=O)NS(C)(=O)=O)c(C=C)c1 [XL-D, Benzenesulphonamide, 2,4-diethenyl-N-(methylsulphonyl)-, lithium salt] | >70 |
| C=Cc1ccc(S(=O)(=O)[N-]S(=O)(=O)c2cccc(S(=O)(=O)[N-]S(=O)(=O)c3ccc(C=C)cc3)c2)cc1.[Li+].[Li+] [XL-2, 1,3-[N-(ethenylphenylsulphonyl)benzenesulphonamide], dilithium salt] | >70 |
